Assay results published in patent publication US6310095A, “Inhibitors of protein isoprenyl transferases” (University of Pittsburgh, priority 1998, dated 2001).
Structures can show the parent of a compound that is named as a salt.

Each compound was assayed against T1, protein farnesyltransferase (Rattus norvegicus, UniProt Q02293+Q04631) (assay: in vitro inhibition of protein farnesyltransferase (scintillation proximity assay, biotin-K Ras B fragment)). Conditions: at 1 × 10^-5 M.
T1 construct: Rat brain protein farnesyltransferase activity is measured; from tissue; host or cells: rat brain; purified according to Reiss et al., Cell 62:81-88 (1990), steps one through three
Type: biochemical
Procedure, shortened: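 Rat brain enzyme, purified through three steps, in a scintillation proximity assay kit with biotin-K Ras B fragment substrate at 0.1 mM final. Value is % inhibition of farnesylation.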

Point of comparison: CSCC[C@H](NC(=O)c1ccc(CNc2ccc(I)cc2)cc1-c1ccccc1)C(=O)O [Example 688], inhibition at 10 µM 71%. Against it:
- CCn1cc(NCc2ccc(C(=O)N[C@@H](CCSC)C(=O)O)c(-c3ccccc3)c2)c(=O)n1CC [Example 364] — lower, 69%
- CSCC[C@H](NC(=O)c1ccc(CNC(CO)C(O)c2ccccc2)cc1-c1ccccc1)C(=O)O (stereo partly drawn) [Example 713] — lower, 40%
- CSCC[C@H](NC(=O)c1ccc(CNc2cccc(C)c2)cc1-c1ccccc1)C(=O)O [Example 674] — lower, 40%
- CSCC[C@H](NC(=O)c1ccc(CNc2cccc(OC(F)(F)F)c2)cc1-c1ccccc1)C(=O)O [Example 678] — higher, 73%
- CSCC[C@H](NC(=O)c1ccc(CNc2ccc(Oc3ccccc3)cc2)cc1-c1ccccc1)C(=O)O [Example 701] — lower, 64%
- CSCC[C@H](NC(=O)c1ccc(CNc2cc(C)cc(C)c2)cc1-c1ccccc1)C(=O)O [Example 709] — lower, 55%

Same assay, conditions: at 1 × 10^-6 M

Point of comparison: CSCC[C@H](NC(=O)c1ccc(COCc2ccc(CN(C)C)o2)cc1-c1ccccc1C)C(=O)O [Example 435], “% inhibition of farnesyltransferase” value 96%. Against it:
- CSCC[C@H](NC(=O)c1ccc(/C=C/c2cnc(Oc3ccccc3)cn2)cc1-c1ccccc1C)C(=O)O [Example 812] — lower, 94%
- CSCC[C@H](NC(=O)c1ccc(S(=O)(=O)NCCCn2ccnc2)cc1-c1ccccc1C)C(=O)O [Example 777] — lower, 83%
- CSCC[C@H](NC(=O)c1ccc(S(=O)(=O)NCCN2CCCCC2)cc1-c1ccccc1C)C(=O)O [Example 774] — lower, 48%
- CSCC[C@H](NC(=O)c1ccc(COCC2CCOC2)cc1-c1ccccc1)C(=O)O (stereo partly drawn) [Example 287] — lower, 24%
- Cc1ccccc1-c1cc(CCc2ccc(Oc3ccccc3)cc2)ccc1C(=O)N[C@@H](CC[S+](C)[O-])C(=O)O (stereo partly drawn) [Example 463] — lower, 91%
- CSCC[C@H](NC(=O)c1ccc(COC2(Cc3ccccc3)CCN(C(=O)OC(C)(C)C)CC2)cc1-c1ccccc1C)C(=O)[O-].[Li+] [Example 809] — lower, 78%
- Cc1ccccc1-c1cc(CCc2cccc(Oc3ccccc3)c2)ccc1C(=O)N[C@@H](CC[S+](C)[O-])C(=O)O (stereo partly drawn) [Example 460] — lower, 88%
- CSCC[C@H](NC(=O)c1ccc(CCc2cnc(Oc3ccccc3)cn2)cc1-c1ccccc1C)C(=O)O [Example 813] — lower, 95%
- CSCC[C@H](NC(=O)c1ccc(C[C@H]2CC[C@@H](c3ccccc3)CC2)cc1-c1ccccc1C)C(=O)O [Example 790] — lower, 88%
- CSCC[C@H](NC(=O)c1ccc(OCCOc2ccccc2)cc1-c1ccccc1C)C(=O)O [Example 561] — lower, 91%
- CSCC[C@H](NC(=O)c1cc(Cc2ccccc2)c(COCCCc2ccccc2)cc1-c1ccccc1C)C(=O)O [Example 925] — lower, 87%

Same assay, conditions: at 1 × 10^-6 M; read-out: % inhibition of farnesyltransferase

Point of comparison: COc1ccccc1CNCc1ccc(C(=O)N[C@@H](CCSC)C(=O)O)c(-c2ccccc2)c1 [Example 650], inhibition at 1 µM 68%. Against it:
- CSCC[C@H](NC(=O)c1ccc(CN(Cc2ccccc2)Cc2cccc(Oc3ccccc3)c2)cc1-c1ccccc1C)C(=O)O [Example 514, N-[4-N-(3-phenoxybenzyl)-N-benzylaminomethyl-2-(2-methylphenyl)benzoyl]methionine lithium salt] — higher, 94%
- CSCC[C@H](NC(=O)c1ccc(CN(CCc2ccccc2)C(C)C)cc1-c1ccccc1C)C(=O)O [Example 835, N-[14-N-(2-phenylethyl)-N-isoprolpylaminomethyl-2-(2-methylphenyl)benzoyl]methionine lithium salt] — higher, 96%
- CSCC[C@H](NC(=O)c1ccc(CN[C@H](CO)Cc2ccccc2)cc1-c1ccccc1C)C(=O)O [Example 727] — higher, 95%
- CSCC[C@H](NC(=O)c1ccc(CNCC(O)c2cccc(O)c2)cc1-c1ccccc1)C(=O)O (stereo partly drawn) [Example 661] — lower, 45%
- CSCC[C@H](NC(=O)c1ccc(CN(Cc2ccccc2)c2ccccc2Cl)cc1-c1ccccc1C)C(=O)O [Example 846, N-[4-N-(N-benzyl-N-(2-chlorophenyl)aminomethyl)-2-(2-methylphenyl)benzoyl]methionine lithium salt] — higher, 85%
- CSCC[C@H](NC(=O)c1ccc(CNC(CO)Cc2ccc(Cl)cc2)cc1-c1ccccc1)C(=O)O (stereo partly drawn) [Example 662] — the same, 68%
- CSCC[C@H](NC(=O)c1ccc(NCCO)cc1-c1ccccc1)C(=O)O [Example 502, N-[4-N-2-hydroxyethylamino-2-phenylbenzoyl]methionine] — lower, 24%
- CSCC[C@H](NC(=O)c1ccc(CN(Cc2ccc(C(F)(F)F)cc2)c2ccccc2)cc1-c1ccccc1C)C(=O)O [Example 782, N-[4-N-(N-phenyl-N-(4-trifluoromethylbenzyl)aminomethyl)-2-(2-methylphenyl)-benzoyl]methionine lithium salt] — higher, 96%
- CCS(=O)(=O)C[C@H](CC1CCCCC1)NCc1ccc(C(=O)N[C@@H](CCSC)C(=O)O)c(-c2ccccc2C)c1 [Example 620, N-[4-(3-cyclohexyl-1-ethylsulfonylpropan-2-ylaminomethyl)-2-(2-methylphenyl)benzoyl]methionine Lithium Salt] — higher, 98%

Same assay, conditions: at 1 × 10^-7 M

Point of comparison: CSCC[C@H](NC(=O)c1ccc(COCc2cccc(C)c2)cc1-c1ccccc1C)C(=O)[O-].[Li+] [Example 578], “% inhibition of farnesyltransferase” value 90%. Against it:
- CSCC[C@H](NC(=O)c1ccc(CSc2ncnc3[nH]cnc23)cc1-c1ccccc1C)C(=O)O [Example 747] — lower, 68%
- CSCC[C@H](NC(=O)c1ccc(COc2cccc3ccccc23)cc1-c1ccccc1C)C(=O)O [Example 574] — lower, 81%
- CSCC[C@H](NC(=O)c1ccc(COCc2cnc(-c3ccc(F)cc3)s2)cc1-c1ccccc1C)C(=O)O [Example 900] — higher, 95%
- CSCC[C@H](NC(=O)c1ccc(COCCCCC2CCCCC2)cc1-c1ccccc1C)C(=O)O [Example 600] — higher, 93%
- COc1cccc(-c2ccc(COCc3ccc(C(=O)N[C@@H](CCSC)C(=O)[O-])c(-c4ccccc4C)c3)o2)c1.[Li+] [Example 442] — lower, 88%
- CSCC[C@H](NC(=O)c1ccc(CN2CCCC(OCC3CCCCC3)C2)cc1-c1ccccc1C)C(=O)O (stereo partly drawn) [Example 990] — lower, 84%
- CSCC[C@H](NC(=O)c1ccc(COCCc2ccc(-c3ccc(Cl)cc3)o2)cc1-c1ccccc1C)C(=O)[O-].[Li+] [Example 536] — lower, 79%
- CSCC[C@H](NC(=O)c1ccc(COCc2cnc(-c3cccc(Cl)c3)o2)cc1-c1ccccc1C)C(=O)[O-].[Li+] [Example 893] — lower, 87%
- CSCC[C@H](NC(=O)c1ccc(COCc2cccc(N(C)C)c2)cc1-c1ccccc1C)C(=O)O [Example 941] — the same, 90%

Same assay, conditions: at 1 × 10^-7 M; read-out: % inhibition of farnesyltransferase

With CCCC[C@H](CC1CCCCC1)NCc1ccc(C(=O)N[C@@H](CCSC)C(=O)O)c(-c2ccccc2C)c1 [Example 615, N-[4-(6-cyclohexylhexan-5-ylaminomethyl)-2-(2-methylphenyl)benzoyl]methionine Lithium Salt] the inhibition at 0.1 µM was 94%.

Same assay, conditions: at 1 × 10^-8 M

Point of comparison: CSCC[C@H](NC(=O)c1ccc(COCc2cc(-c3ccc(Cl)cc3)co2)cc1-c1ccccc1C)C(=O)[O-].[Li+] [Example 904], “% inhibition of farnesyltransferase” value 85%. Against it:
- CCCCC(CCCC)OCc1ccc(C(=O)N[C@@H](CCSC)C(=O)[O-])c(-c2ccccc2C)c1.[Li+] [Example 942] — lower, 58%
- CSCC[C@H](NC(=O)c1ccc(COCc2cnc(-c3ccc(Cl)cc3)s2)cc1-c1ccccc1C)C(=O)[O-].[Li+] [Example 901] — lower, 84%
- CSCC[C@H](NC(=O)c1ccc(COCCc2ccc(Cl)cc2Cl)cc1-c1ccccc1C)C(=O)[O-].[Li+] [Example 591] — lower, 82%

Same assay, conditions: at 1 × 10^-8 M; read-out: % inhibition of farnesyltransferase

Point of comparison: CSCC[C@H](NC(=O)c1ccc(CN(Cc2ccccc2)c2ccc([N+](=O)[O-])cc2)cc1-c1ccccc1C)C(=O)O [Example 843, N-[4-(N-benzyl-N-(4-nitrophenyl)aninomethyl)-2-(2-methylphenyl)benzoyl]methionine lithium salt], inhibition at 0.01 µM 96%. Against it:
- CSCC[C@H](NC(=O)c1ccc(CN(Cc2cncs2)C2CCSCC2)cc1-c1ccccc1C)C(=O)O [Example 881] — lower, 69%
- COc1cccc(N(Cc2ccccc2)Cc2ccc(C(=O)N[C@@H](CCSC)C(=O)O)c(-c3ccccc3C)c2)c1 [Example 833, N-[4-N-benzyl-N-3-methoxyphenylaminomethyl-2-(2-methylphenyl)benzoyl]methionine lithium salt] — lower, 78%
- CSCC[C@H](NC(=O)c1ccc(CN(c2ccccc2)S(=O)(=O)c2ccc(C(F)(F)F)cc2)cc1-c1ccccc1C)C(=O)O [Example 780, N-[4-N-(N-phenyl-N-(4-trifluoromethylbenzenesulfonyl)aminomethyl)-2-(2-methylphenal)-benzoyl]methionine lithium salt] — lower, 71%
